Converted amounts (≈) assume the structure as drawn.
Tested on: Aspergillus fumigatus
Experiment: Antifungal activity against Aspergillus fumigatus ATCC 204305 after 48 hrs
Assay type: functional
Details: ATCC 204305, 48 h

Structure (SMILES)	MIC90
CC(C)=CCCc1ccc2c(c1)C(=O)C(Cl)=C(NCc1ccccc1)C2=O	> 32 µg/mL
COc1ccc(SC2=CC(=O)c3ccc(CCCC(C)C)cc3C2=O)cc1	> 32 µg/mL
Cc1ccc2[nH]c3c(c2c1)C(=O)c1ccc(CCCC(C)C)cc1C3=O	> 32 µg/mL
COc1cc(NC2=C(Cl)C(=O)c3cc4c(cc3C2=O)C(C)(C)CCC4)cc(OC)c1OC	> 32 µg/mL
CC(C)CCCc1ccc2c(c1)C(=O)C(Br)=C(Br)C2=O	> 32 µg/mL
CCOC1=C(OCC)C(=O)c2cc3c(cc2C1=O)CCCC3(C)C	> 32 µg/mL

Tested on: Aspergillus terreus
Experiment: Antifungal activity against Aspergillus terreus CDC 317 after 48 hrs
Assay type: functional
Details: CDC 317, 48 h

Structure (SMILES)	MIC90
CC(C)=CCCc1ccc2c(c1)C(=O)C(Cl)=C(NCc1ccccc1)C2=O	> 32 µg/mL
COc1ccc(SC2=CC(=O)c3ccc(CCCC(C)C)cc3C2=O)cc1	> 32 µg/mL
Cc1ccc2[nH]c3c(c2c1)C(=O)c1ccc(CCCC(C)C)cc1C3=O	> 32 µg/mL
COc1cc(NC2=C(Cl)C(=O)c3cc4c(cc3C2=O)C(C)(C)CCC4)cc(OC)c1OC	> 32 µg/mL
CC(C)CCCc1ccc2c(c1)C(=O)C(Br)=C(Br)C2=O	> 32 µg/mL
CCOC1=C(OCC)C(=O)c2cc3c(cc2C1=O)CCCC3(C)C	> 32 µg/mL

Tested on: Candida albicans
Experiment: Antifungal activity against Candida albicans ATCC 90028 after 24 hrs
Assay type: functional
Details: ATCC 90028, 24 h

Structure (SMILES)	MIC90
CC(C)=CCCc1ccc2c(c1)C(=O)C(Cl)=C(NCc1ccccc1)C2=O	> 32 µg/mL
COc1ccc(SC2=CC(=O)c3ccc(CCCC(C)C)cc3C2=O)cc1	> 32 µg/mL
Cc1ccc2[nH]c3c(c2c1)C(=O)c1ccc(CCCC(C)C)cc1C3=O	> 32 µg/mL
COc1cc(NC2=C(Cl)C(=O)c3cc4c(cc3C2=O)C(C)(C)CCC4)cc(OC)c1OC	> 32 µg/mL
CC(C)CCCc1ccc2c(c1)C(=O)C(Br)=C(Br)C2=O	> 32 µg/mL
CCOC1=C(OCC)C(=O)c2cc3c(cc2C1=O)CCCC3(C)C	> 32 µg/mL

Tested on: Candida parapsilosis
Experiment: Antifungal activity against Candida parapsilosis ATCC 22019 after 24 hrs
Assay type: functional
Details: ATCC 22019, 24 h

Structure (SMILES)	MIC90
CC(C)=CCCc1ccc2c(c1)C(=O)C(Cl)=C(NCc1ccccc1)C2=O	> 32 µg/mL
COc1ccc(SC2=CC(=O)c3ccc(CCCC(C)C)cc3C2=O)cc1	> 32 µg/mL
Cc1ccc2[nH]c3c(c2c1)C(=O)c1ccc(CCCC(C)C)cc1C3=O	> 32 µg/mL
COc1cc(NC2=C(Cl)C(=O)c3cc4c(cc3C2=O)C(C)(C)CCC4)cc(OC)c1OC	> 32 µg/mL
CC(C)CCCc1ccc2c(c1)C(=O)C(Br)=C(Br)C2=O	> 32 µg/mL
CCOC1=C(OCC)C(=O)c2cc3c(cc2C1=O)CCCC3(C)C	> 32 µg/mL

Tested on: Trichophyton rubrum
Experiment: Antifungal activity against Trichophyton rubrum ATCC 28188 after 6 days
Assay type: functional
Details: ATCC 28188, 144 h

Structure (SMILES)	MIC90
CC(C)=CCCc1ccc2c(c1)C(=O)C(Cl)=C(NCc1ccccc1)C2=O	22.6 µg/mL (≈ 59.5 µM)
COc1ccc(SC2=CC(=O)c3ccc(CCCC(C)C)cc3C2=O)cc1	> 32 µg/mL
Cc1ccc2[nH]c3c(c2c1)C(=O)c1ccc(CCCC(C)C)cc1C3=O	> 32 µg/mL
COc1cc(NC2=C(Cl)C(=O)c3cc4c(cc3C2=O)C(C)(C)CCC4)cc(OC)c1OC	> 32 µg/mL
CC(C)CCCc1ccc2c(c1)C(=O)C(Br)=C(Br)C2=O	32 µg/mL (≈ 80 µM)
CN(C/C=C/C#CC(C)(C)C)Cc1cccc2ccccc12 [TERBINAFINE]	0.08 µg/mL (≈ 0.275 µM)
CCOC1=C(OCC)C(=O)c2cc3c(cc2C1=O)CCCC3(C)C	> 32 µg/mL

Tested on: Candida tropicalis
Experiment: Antifungal activity against Candida tropicalis ATCC 200956 after 24 hrs
Assay type: functional
Details: ATCC 200956, 24 h

Structure (SMILES)	MIC90
CC(C)=CCCc1ccc2c(c1)C(=O)C(Cl)=C(NCc1ccccc1)C2=O	> 32 µg/mL
COc1ccc(SC2=CC(=O)c3ccc(CCCC(C)C)cc3C2=O)cc1	> 32 µg/mL
Cc1ccc2[nH]c3c(c2c1)C(=O)c1ccc(CCCC(C)C)cc1C3=O	> 32 µg/mL
COc1cc(NC2=C(Cl)C(=O)c3cc4c(cc3C2=O)C(C)(C)CCC4)cc(OC)c1OC	> 32 µg/mL
CC(C)CCCc1ccc2c(c1)C(=O)C(Br)=C(Br)C2=O	> 32 µg/mL
CCOC1=C(OCC)C(=O)c2cc3c(cc2C1=O)CCCC3(C)C	> 32 µg/mL

Tested on: Pichia kudriavzevii
Experiment: Antifungal activity against Candida krusei ATCC 6258 after 24 hrs
Assay type: functional
Details: ATCC 6258, 24 h

Structure (SMILES)	MIC90
CC(C)=CCCc1ccc2c(c1)C(=O)C(Cl)=C(NCc1ccccc1)C2=O	> 32 µg/mL
COc1ccc(SC2=CC(=O)c3ccc(CCCC(C)C)cc3C2=O)cc1	> 32 µg/mL
Cc1ccc2[nH]c3c(c2c1)C(=O)c1ccc(CCCC(C)C)cc1C3=O	> 32 µg/mL
COc1cc(NC2=C(Cl)C(=O)c3cc4c(cc3C2=O)C(C)(C)CCC4)cc(OC)c1OC	> 32 µg/mL
CC(C)CCCc1ccc2c(c1)C(=O)C(Br)=C(Br)C2=O	> 32 µg/mL
CCOC1=C(OCC)C(=O)c2cc3c(cc2C1=O)CCCC3(C)C	> 32 µg/mL

Tested on: Vero
Experiment: Cytotoxicity against african green monkey Vero cells after 48 hrs by MTT assay
Assay type: cell-based
Details: Chlorocebus sabaeus

Structure (SMILES)	IC50
CC(C)=CCCc1ccc2c(c1)C(=O)C(Cl)=C(NCc1ccccc1)C2=O	55.9 µg/mL (≈ 147 µM)
Cc1ccc2[nH]c3c(c2c1)C(=O)c1ccc(CCCC(C)C)cc1C3=O	55.2 µg/mL (≈ 160 µM)
COc1cc(NC2=C(Cl)C(=O)c3cc4c(cc3C2=O)C(C)(C)CCC4)cc(OC)c1OC	≤ 25 µg/mL
CC(C)CCCc1ccc2c(c1)C(=O)C(Br)=C(Br)C2=O	≤ 25 µg/mL
CN(C/C=C/C#CC(C)(C)C)Cc1cccc2ccccc12 [TERBINAFINE]	30.9 µg/mL (≈ 106 µM)
CCOC1=C(OCC)C(=O)c2cc3c(cc2C1=O)CCCC3(C)C	≤ 25 µg/mL

Tested on: Clavispora lusitaniae
Experiment: Antifungal activity against Candida lusitaniae ATCC 200951 after 24 hrs
Assay type: functional
Details: ATCC 200951, 24 h

Structure (SMILES)	MIC90
CC(C)=CCCc1ccc2c(c1)C(=O)C(Cl)=C(NCc1ccccc1)C2=O	> 32 µg/mL
COc1ccc(SC2=CC(=O)c3ccc(CCCC(C)C)cc3C2=O)cc1	> 32 µg/mL
Cc1ccc2[nH]c3c(c2c1)C(=O)c1ccc(CCCC(C)C)cc1C3=O	> 32 µg/mL
COc1cc(NC2=C(Cl)C(=O)c3cc4c(cc3C2=O)C(C)(C)CCC4)cc(OC)c1OC	> 32 µg/mL
CC(C)CCCc1ccc2c(c1)C(=O)C(Br)=C(Br)C2=O	> 32 µg/mL
CCOC1=C(OCC)C(=O)c2cc3c(cc2C1=O)CCCC3(C)C	> 32 µg/mL

Tested on: Candida tropicalis
Experiment: Antifungal activity against Candida tropicalis CECT 11901 after 24 hrs
Details: CECT 11901, 24 h

Structure (SMILES)	MIC90
CC(C)=CCCc1ccc2c(c1)C(=O)C(Cl)=C(NCc1ccccc1)C2=O	> 32 µg/mL
COc1ccc(SC2=CC(=O)c3ccc(CCCC(C)C)cc3C2=O)cc1	> 32 µg/mL
Cc1ccc2[nH]c3c(c2c1)C(=O)c1ccc(CCCC(C)C)cc1C3=O	> 32 µg/mL
COc1cc(NC2=C(Cl)C(=O)c3cc4c(cc3C2=O)C(C)(C)CCC4)cc(OC)c1OC	> 32 µg/mL
CC(C)CCCc1ccc2c(c1)C(=O)C(Br)=C(Br)C2=O	> 32 µg/mL
CCOC1=C(OCC)C(=O)c2cc3c(cc2C1=O)CCCC3(C)C	> 32 µg/mL

Tested on: Aspergillus niger
Experiment: Antifungal activity against Aspergillus niger ATCC 16404 after 48 hrs
Assay type: functional
Details: ATCC 16404, 48 h

Structure (SMILES)	MIC90
CC(C)=CCCc1ccc2c(c1)C(=O)C(Cl)=C(NCc1ccccc1)C2=O	> 32 µg/mL
COc1ccc(SC2=CC(=O)c3ccc(CCCC(C)C)cc3C2=O)cc1	> 32 µg/mL
Cc1ccc2[nH]c3c(c2c1)C(=O)c1ccc(CCCC(C)C)cc1C3=O	> 32 µg/mL
COc1cc(NC2=C(Cl)C(=O)c3cc4c(cc3C2=O)C(C)(C)CCC4)cc(OC)c1OC	> 32 µg/mL
CC(C)CCCc1ccc2c(c1)C(=O)C(Br)=C(Br)C2=O	> 32 µg/mL
CCOC1=C(OCC)C(=O)c2cc3c(cc2C1=O)CCCC3(C)C	> 32 µg/mL

Tested on: not listed separately
Experiment: Selectivity index, ratio of IC50 for african green monkey Vero cells to IC50 for Trichophyton rubrum ATCC 28188
Assay type: toxicity, cell-based
Details: read-out: Ratio IC50

Structure (SMILES)	selectivity ratio
CN(C/C=C/C#CC(C)(C)C)Cc1cccc2ccccc12 [TERBINAFINE]	386

Tested on: Candida albicans
Experiment: Antifungal activity against Candida albicans ATCC 10231 after 24 hrs
Assay type: functional
Details: ATCC 10231, 24 h

Structure (SMILES)	MIC90
CC(C)=CCCc1ccc2c(c1)C(=O)C(Cl)=C(NCc1ccccc1)C2=O	> 32 µg/mL
COc1ccc(SC2=CC(=O)c3ccc(CCCC(C)C)cc3C2=O)cc1	> 32 µg/mL
Cc1ccc2[nH]c3c(c2c1)C(=O)c1ccc(CCCC(C)C)cc1C3=O	> 32 µg/mL
COc1cc(NC2=C(Cl)C(=O)c3cc4c(cc3C2=O)C(C)(C)CCC4)cc(OC)c1OC	> 32 µg/mL
CC(C)CCCc1ccc2c(c1)C(=O)C(Br)=C(Br)C2=O	> 32 µg/mL
CCOC1=C(OCC)C(=O)c2cc3c(cc2C1=O)CCCC3(C)C	> 32 µg/mL

Tested on: Fusarium oxysporum
Experiment: Antifungal activity against Fusarium oxysporum ATCC 48112 after 48 hrs
Assay type: functional
Details: ATCC 48112, 48 h

Structure (SMILES)	MIC90
CC(C)=CCCc1ccc2c(c1)C(=O)C(Cl)=C(NCc1ccccc1)C2=O	> 32 µg/mL
COc1ccc(SC2=CC(=O)c3ccc(CCCC(C)C)cc3C2=O)cc1	> 32 µg/mL
Cc1ccc2[nH]c3c(c2c1)C(=O)c1ccc(CCCC(C)C)cc1C3=O	> 32 µg/mL
COc1cc(NC2=C(Cl)C(=O)c3cc4c(cc3C2=O)C(C)(C)CCC4)cc(OC)c1OC	> 32 µg/mL
CC(C)CCCc1ccc2c(c1)C(=O)C(Br)=C(Br)C2=O	> 32 µg/mL
CCOC1=C(OCC)C(=O)c2cc3c(cc2C1=O)CCCC3(C)C	> 32 µg/mL

Tested on: Trichophyton mentagrophytes
Experiment: Antifungal activity against Trichophyton mentagrophytes ATCC 24198 after 6 days
Assay type: functional
Details: ATCC 24198, 144 h

Structure (SMILES)	MIC90
CC(C)=CCCc1ccc2c(c1)C(=O)C(Cl)=C(NCc1ccccc1)C2=O	> 32 µg/mL
COc1ccc(SC2=CC(=O)c3ccc(CCCC(C)C)cc3C2=O)cc1	> 32 µg/mL
Cc1ccc2[nH]c3c(c2c1)C(=O)c1ccc(CCCC(C)C)cc1C3=O	> 32 µg/mL
COc1cc(NC2=C(Cl)C(=O)c3cc4c(cc3C2=O)C(C)(C)CCC4)cc(OC)c1OC	> 32 µg/mL
CC(C)CCCc1ccc2c(c1)C(=O)C(Br)=C(Br)C2=O	> 32 µg/mL
CN(C/C=C/C#CC(C)(C)C)Cc1cccc2ccccc12 [TERBINAFINE]	0.03 µg/mL (≈ 0.103 µM)
CCOC1=C(OCC)C(=O)c2cc3c(cc2C1=O)CCCC3(C)C	> 32 µg/mL

Tested on: Aspergillus flavus
Experiment: Antifungal activity against Aspergillus flavus ATCC 204304 after 48 hrs
Assay type: functional
Details: ATCC 204304, 48 h

Structure (SMILES)	MIC90
CC(C)=CCCc1ccc2c(c1)C(=O)C(Cl)=C(NCc1ccccc1)C2=O	> 32 µg/mL
COc1ccc(SC2=CC(=O)c3ccc(CCCC(C)C)cc3C2=O)cc1	> 32 µg/mL
Cc1ccc2[nH]c3c(c2c1)C(=O)c1ccc(CCCC(C)C)cc1C3=O	> 32 µg/mL
COc1cc(NC2=C(Cl)C(=O)c3cc4c(cc3C2=O)C(C)(C)CCC4)cc(OC)c1OC	> 32 µg/mL
CC(C)CCCc1ccc2c(c1)C(=O)C(Br)=C(Br)C2=O	32 µg/mL (≈ 80 µM)
CCOC1=C(OCC)C(=O)c2cc3c(cc2C1=O)CCCC3(C)C	> 32 µg/mL

Reference: ChEMBL document CHEMBL2417537, “Synthesis and antifungal activity of terpenyl-1,4-naphthoquinone and 1,4-anthracenedione derivatives” (Eur J Med Chem, 2013)
